This note sets out measurements from patent US11932653B2, “Lycorine derivative, and pharmaceutical composition and use thereof” (priority 2018, dated 2024).

Several values for one entry are separate records, joined by “and”; a condition that tells them apart may be missing. Equal entries are not always repeated.

The nature of data set [1]: Pharmacokinetic experiment in plasma. Format: in vivo. Particulars: male ICR mice, Compound 6 1.5 mg/kg ip. How it is done:
Male ICR mice weighing 20-22 g were intraperitoneally injected with Compound 6 (1.5 mg/kg), and then blood was taken from the orbit at 5 min, 10 min, 15 min, 30 min, 1 h, 2 h, 4 h, 6 h, 8 h, 12 h, and 24 h. The heparin anticoagulant was added, placed on ice, and centrifuged at 7000 r/min for 7 min. The plasma was separated for use. 60 μl of acetonitrile was added to 20 μL of the plasma sample obtained after administration, to precipitate the protein. After high-speed centrifugation at 13300 r/min for 7 min, 60 μl of the supernatant was taken and centrifuged at 13300 r/min for 4 min. 5 μl of the supernatant was taken for UPLC/MS analysis. Plasma pharmacokinetics was analyzed by Winnolin software and fitted by a non-compartmental model.
Male ICR mice weighing 20-22 g were intraperitoneally injected with Compound 20 (1.5 mg/kg), and then blood was taken from the orbit at 5 min, 10 min, 15 min, 30 min, 1 h, 2 h, 4 h, 6 h, 8 h, 12 h, and 24 h. The heparin anticoagulant was added, placed on ice, and centrifuged at 7000 r/min for 7 min. The plasma was separated for use. 60 μl of acetonitrile was added to 20 μL of the plasma sample obtained after administration, to precipitate the protein. […] Plasma pharmacokinetics was analyzed by Winnolin software and fitted by a non-compartmental model.

Data set [2] in a line: Cytotoxicity in uninfected RD cells (CC50, MTT). Format: cell-based. Particulars: human, Table 1. How it is done: (§1) RD cells were seeded into a 96-well plate (10^4 cells/well), and infected with 100× TCID50 of EV71 viruses. After 2 hrs, various concentrations of the derivative were added. […] Uninfected cells were also given various concentrations of the derivative to determine the CC50.
(§2) RD cells were seeded into a 96-well plate (10^4 cells/well), and infected with 100×TCID50 of CAV16 viruses. After 2 hrs, various concentrations of the derivative were added. […] Uninfected cells were also given various concentrations of the derivative to determine the CC50.

Data set [3] relates to EV71. Kind of data set: In-vitro experiment against EV71 virus (RD cells, MTT). To be noted: for EC50: Enterovirus A, RD cells infected with 100x TCID50 EV71, compound added after 2 hrs, MTT at 48 hrs; for SI: selectivity index, EV71, RD cells. Format: cell-based. How it is done: as §1
Data set [4] concerns EV71. Nature of the data set: Therapeutic effect on EV71-infected mice. Format: in vivo, ICR mice. Particulars: 7 days. How it is done: 10-day-old SPF grade ICR mice (female:male 1:1) were used. A placebo group and a treatment group with Compound 1 were set, each group having 10 mice. The mice were infected with the virus by intraperitoneal injection. 2 hrs after infection, the mice were administered by intraperitoneal injection. The dosage of Compound 1 was set to 1 mg/kg body weight/day. The mice in the placebo group were injected with the same dose of normal saline, and the mice in each group were administered once a day for consecutive 7 days. From the day of virus infection, the observation was made twice a day for 14 days. The weight, symptoms and survival rate of the mice were recorded.

The test system of data set [5] is CAV16. Kind of data set: In-vitro experiment against Coxsackievirus A16 (CAV16) (RD cells, MTT). Format: cell-based, Coxsackievirus Virus A16 (CAV16). To be noted: for EC50: Coxsackievirus, RD cells infected with 100x TCID50 CAV16, compound added after 2 hrs, MTT at 48 hrs; for SI: selectivity index, CAV16, RD cells. How it is done: as §2
Data set [6] is described as follows: Toxicity test in ICR mice after single administration by intraperitoneal injection. Format: in vivo. As for the experimental part: 22 10-day-old ICR mice were randomly assigned to 17 groups, and given Compound 6 once by intraperitoneal injection at a dosage of 0.625, 1.25, 2.5, 5, 10, 20, 40, 80, 100, 160, 200, 250, 300, 470, 500, 1000, or 2000 mg/kg. 1-2 animals were included in each group, and the male and female mice were administered alternately. […] The dead animals are necropsied and the changes in main organs were observed. On day 1 after administration, the weight of the animals in the 160 mg/kg group is decreases by 0.3 g, and the weight of the animals in the 0.625, 1.25, 2.5, 5, 10, 20, 40, 80, 100 mg/kg group is increased, compared to the day of administration. Under the conditions in this experiment, ICR mice were given Compound 6 once by intraperitoneal injection. The minimum lethal dose was 200 mg/kg and the maximum tolerated dose was 160 mg/kg.
24 10-day-old ICR mice were randomly assigned to 19 groups, and given Compound 6 once by intraperitoneal injection at a dosage of 0.625, 1.25, 2.5, 5, 10, 20, 40, 60, 80, 100, 120, 136, 160, 270, 320, 500, 690, 1000, or 2000 mg/kg. 1-2 animals were included in each group, and the male and female mice were administered alternately. […] The dead animals are necropsied and the changes in main organs were observed. […] Under the conditions in this experiment, ICR mice were given Compound 20 once by intraperitoneal injection.

The test system of data set [7] is Salmonella typhimurium TA100. Nature of the data set: Test of reverse mutation in histidine-deficient Salmonella typhimurium, strain TA100. Format: cell-based. To be noted: for Number of colonies TA100(+S9): solvent control 170.7 ± 10.9. As for the experimental part:
(§3) The mutagenic effect of Compound 6 on the strains TA100 and TA102 was detected by determining the reverse mutation in histidine-deficient Salmonella typhimurium by pre-loaded culture dish method. The dosage of Compound 6 is 8, 40, 200, 1000, or 5000 μg/dish under activated and non-activated conditions, and the mutagenic effects on TA100 and TA102 were tested.

For data set [8], the system named is Salmonella typhimurium TA102. Nature of the data set: Test of reverse mutation in histidine-deficient Salmonella typhimurium, strain TA102. Format: cell-based. To be noted: for Number of colonies TA102(−S9): solvent control 225.0 ± 7.5; for Number of colonies TA102(+S9): solvent control 236.5 ± 5.0. As for the experimental part: as §3
[9] abbreviates: 8-5000 μg/dish, activated and non-activated conditions.

Turning to “1-(4-fluoro-phenoxyacetyl)-lycorine [Compound 6]”, the t1/2z in data set [1] (title: metabolite of Compound 6, individual animals 1-3, 1.5 mg/kg) was 25.719 h and 14.311 h and 26.875 h. Also, the “t1/2z Mean ± SD” value in data set [1] (title: metabolite of Compound 6, mean of 3) is on record as 22.3 ± 6.94 h.

With `O=C(COc1ccccc1)OC1C(O)C=C2CCN3Cc4cc5c(cc4C1C23)OCO5` (centres unmarked) [Compound 1, 1-phenoxyacetyl-lycorine], the CC50 at 48 h in data set [2] turned out to be 119 µM. In data set [3], this compound displayed an EC50 of 1.64 µM and an SI of 72.41. In addition, in data set [4] (10-day-old ICR mice infected ip with EV71, 1 mg/kg body weight/day ip, observed 14 days, placebo 100%), the mortality rate is recorded as 40%. Besides, the “recovery of surviving mice” value in data set [4] (EV71-infected ICR mice, 1 mg/kg/day ip, after 14 days) is given as “the surviving mice recover to normal after 14 days”. Further, in data set [4] (EV71-infected ICR mice, 1 mg/kg/day ip, versus placebo), the “symptoms, weight loss and paralysis” value was “reduced symptoms, and significantly alleviated weight loss and paralysis”. In data set [5], this compound displayed an EC50 of 1.19 µM and an SI of 99.80.

For the compound `O=C(CSc1ccccc1)OC1C(O)C=C2CCN3Cc4cc5c(cc4C1C23)OCO5` (centres unmarked) [Compound 2, 1-phenylthioacetyl-lycorine], the CC50 at 48 h in data set [2] amounted to 114 µM. In addition, the EC50 in data set [3] was found to be 1.65 µM; in data set [5] it was 0.57 µM. The results for the SI in data set [3] and in data set [5] were 69.35 and 200.73, respectively.

As for `O=C(COc1ccc(F)cc1)OC1C(O)C=C2CCN3Cc4cc5c(cc4C1C23)OCO5` (centres unmarked) [Compound 6, 1-(4-fluoro-phenoxyacetyl)-lycorine], the 50% cytotoxic concentration (CC50) at 48 h in data set [2] was found to be 131 µM. This compound returned a minimum lethal dose in data set [6] (10-day-old ICR mice, single intraperitoneal injection, observed 14 days) of 200 mg/kg. For the same compound, the MTD at 14 days in data set [6] (both sexes, ICR, mouse, in vivo, ip) came to 160 mg/kg. Further, the “Weight on day 1 after administration” value in data set [6] (mouse, in vivo, ip, 0.625 mg/kg) amounted to 7.3; in data set [6] (mouse, in vivo, ip, 5 mg/kg) it was 6.9; in data set [6] (mouse, in vivo, ip, 10 mg/kg) it was 6.5; in data set [6] (mouse, in vivo, ip, 20 mg/kg) it was 7.5; in data set [6] (mouse, in vivo, ip, 40 mg/kg), 7.7; in data set [6] (mouse, in vivo, ip, 80 mg/kg), 7.3. The “Weight on day 1 after administration” value in data set [6] (mouse, in vivo, ip, 100 mg/kg) was 7.3; in data set [6] (mouse, in vivo, ip, 160 mg/kg), 6.3. This compound showed an EC50 in data set [3] of 1.27 µM. Further, the SI in data set [3] was 103.30. Besides, the “Number of colonies TA100(−S9)” value turned out to be 152.7 ± 9.4 in data set [7] (8 μg/dish, solvent control 165.3 ± 10.7); 141.8 ± 5.9 in data set [7] (40 μg/dish, solvent control 165.3 ± 10.7); 152.7 ± 9.5 in data set [7] (200 μg/dish, solvent control 165.3 ± 10.7); 113.0 ± 14.2 in data set [7] (1000 μg/dish, solvent control 165.3 ± 10.7); 110.5 ± 7.8 in data set [7] (5000 μg/dish, solvent control 165.3 ± 10.7). Moreover, the “Number of colonies TA100(+S9)” value is given as 159.3 ± 11.3 in data set [7] (8 μg/dish); 158.7 ± 10.7 in data set [7] (40 μg/dish); 158.5 ± 11.5 in data set [7] (200 μg/dish); 127.7 ± 10.1 in data set [7] (1000 μg/dish); 114.7 ± 3.8 in data set [7] (5000 μg/dish). Further, the “mutagenic effect on TA100” value in data set [7] (setting [9]) is reported as “negative”. In addition, the “Number of colonies TA102(−S9)” value is recorded as 223.0 ± 9.1 in data set [8] (8 μg/dish); 205.0 ± 14.6 in data set [8] (40 μg/dish); 192.8 ± 18.6 in data set [8] (200 μg/dish); 182.3 ± 10.3 in data set [8] (1000 μg/dish); 147.2 ± 20.3 in data set [8] (5000 μg/dish). The “Number of colonies TA102(+S9)” value in data set [8] (8 μg/dish) was found to be 235.0 ± 9.6; in data set [8] (40 μg/dish) it was 222.5 ± 9.3; in data set [8] (200 μg/dish), 208.3 ± 6.8; in data set [8] (1000 μg/dish), 195.2 ± 8.6; in data set [8] (5000 μg/dish) it was 180.7 ± 11.7. In addition, the “mutagenic effect on TA102” value in data set [8] (setting [9]) is “negative”.

For `O=C(COc1ccc(Cl)cc1Cl)OC1C(O)C=C2CCN3Cc4cc5c(cc4C1C23)OCO5` (centres unmarked) [Compound 16, 1-(2,4-dichloro-phenoxyacetyl)-lycorine], half-maximal cytotoxicity in data set [2] (CC50 at 48 h) was put at 130 µM. In data set [3], a half-maximal effect (EC50) was put at 1.71 µM and the SI is given as 75.94.

In turn, `O=C(COc1ccccc1[N+](=O)[O-])OC1C(O)C=C2CCN3Cc4cc5c(cc4C1C23)OCO5` (centres unmarked) [Compound 17] yielded a CC50 at 48 h in data set [2] of 156 µM. In data set [3], the EC50 was 1.71 µM and the SI was 91.37.

Regarding `COc1ccc(OCC(=O)OC2C(O)C=C3CCN4Cc5cc6c(cc5C2C34)OCO6)cc1` (centres unmarked) [Compound 18, 1-(4-methoxy-phenoxyacetyl)-lycorine], the CC50 at 48 h in data set [2] turned out to be 161 µM. In data set [3], the EC50 worked out at 1.65 µM and the SI turned out to be 97.65.

In data set [2], `O=C(COc1ccc2ccccc2c1)OC1C(O)C=C2CCN3Cc4cc5c(cc4C1C23)OCO5` (centres unmarked) [Compound 19, 1-(2-naphthyl-phenoxyacetyl)-lycorine] registered a cytotoxic concentration (CC50) at 48 h of 163 µM. Further, in data set [3], the EC50 was found to be 1.97 µM and the SI worked out at 82.94.

Take `O=C(CCc1ccccc1)OC1C(O)C=C2CCN3Cc4cc5c(cc4C1C23)OCO5` (centres unmarked) [Compound 23, 1-(3-phenylpropionyl)-lycorine]: the CC50 at 48 h in data set [2] stood at 129 µM. In data set [3], the EC50 is 1.73 µM and the SI amounted to 74.28.

For `O[C@H]1[C@H]2c3cc4c(cc3CN3CCC(=C[C@@H]1O)[C@H]23)OCO4` [Lycorine], the midpoint of cytotoxicity in data set [2], the CC50 at 48 h, lay at 105 µM. Also, in data set [3], the EC50 came to 2.26 µM and the SI is 46.24. Moreover, in data set [5], the EC50 is 1.57 µM and the SI was determined as 66.57.

`[N-]=[N+]=[N-].[Na+]` [NaN3, reference compound]: the “Number of colonies TA100(−S9)” value in data set [7] (1.5 μg/dish, positive control) is listed as over 1000.
